Measured values published in patent US6737383B1, “Herbicidal oxadiazolidines” (priority 1999, dated 2004).

Key:
bedstraw = assay: Test B pre/postemergence bedstraw; assay type: in vivo, Galium aparine; conditions: Postemergence
Summary of the method: (§1)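 Response is a visual 0-to-10 score relative to untreated plants, where 0 means no effect and 10 means complete control, taken twelve to sixteen days after application. Treatments went onto soil at planting and onto foliage of 1- to 4-leaf plants, using a surfactant-containing non-phytotoxic solvent.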

surinam grass = assay: Test B pre/postemergence surinam grass; assay type: in vivo, Brachiaria decumbens
Summary of the method: as §1

corn = assay: Test B pre/postemergence corn; assay type: in vivo, Zea mays; conditions: for Corn plant response rating: scale of 0 to 10 where 0 is no effect and 10 is complete control
Summary of the method: as §1

crabgrass = assay: Test B pre/postemergence crabgrass; assay type: in vivo, Digitaria sanguinalis; conditions: for Crabgrass plant response rating: scale of 0 to 10 where 0 is no effect and 10 is complete control
Summary of the method: as §1

common ragweed = assay: Test D common ragweed; assay type: in vivo, Ambrosia elatior; conditions: Postemergence, 0 to 100 scale
dallisgrass = assay: Test D dallisgrass; assay type: in vivo, Paspalum dilatatum; conditions: Postemergence, 0 to 100 scale
goosegrass = assay: Test D goosegrass; assay type: in vivo, Eleusine indica; conditions: Postemergence, 0 to 100 scale
Johnson grass = assay: Test D Johnson grass; assay type: in vivo, Sorghum halepense; conditions: Postemergence, 0 to 100 scale
large crabgrass = assay: Test D large crabgrass; assay type: in vivo, Digitaria sanguinalis; conditions: Postemergence, 0 to 100 scale
Spanishneedles = assay: Test D Spanishneedles; assay type: in vivo, Bidens bipinnata; conditions: Postemergence, 0 to 100 scale
Green foxtail [1] = assay: Test D green foxtail; assay type: in vivo; conditions: Postemergence, 0 to 100 scale, 0 no injury, 100 complete control
Green foxtail [2] = assay: Test D green foxtail; assay type: in vivo; conditions: Postemergence, 0 to 100 scale, 0 no injury, 100 complete control; remark: listed apart in the source
Green foxtail [3] = assay: Test D green foxtail; assay type: in vivo; conditions: Postemergence, 0 to 100 scale, 0 no injury, 100 complete control; remark: listed apart in the source
[4] = Postemergence, Rate 125 g/ha, scale 0 to 10, 0 is no effect, 10 is complete control
[5] = Preemergence, Rate 62 g/ha, scale 0 to 10 (0 no effect, 10 complete control)
[6] = Rate 500 g/ha, Postemergence, scale 0 to 10, 0 no effect, 10 complete control
[7] = Rate 16 g/ha, 0 no injury, 100 complete control
[8] = Rate 32 g/ha, 0 no injury, 100 complete control
[9] = Rate 64 g/ha, 0 no injury, 100 complete control
[10] = Rate 125 g/ha, 0 no injury, 100 complete control

In the case of `CC(C)N(C(=O)n1oc(=O)n(CC2CCCO2)c1=O)c1ccc(F)cc1` (stereo not shown) [Compound 343], the “Plant response rating, Bedstraw” value (bedstraw; Rate 125 g/ha, scale 0 to 10, 0 is no effect, 10 is complete control) is reported as 0, the “Bedstraw plant response rating” value (bedstraw; Rate 62 g/ha, scale of 0 to 10 where 0 is no effect and 10 is complete control) is reported as 0 and the “Plant response rating, Bedstraw” value (bedstraw; Rate 250 g/ha, scale of 0 to 10 where 0 is no effect and 10 is complete control) is reported as 0. For the same compound, the “Plant response rating, Bedstraw” value (bedstraw; Rate 500 g/ha, scale 0 to 10, 0 no effect, 10 complete control) was 3, the “Plant response rating, B. signalgrass” value (surinam grass; [4]) was 4 and the “Plant response rating, B. signalgrass” value (surinam grass; [5]) was 3. The “B. signalgrass plant response rating (0 to 10 scale, 0 is no effect, 10 is complete control)” value (surinam grass; Preemergence, Rate 125 g/ha) was 4, the “B. signalgrass plant response rating” value (surinam grass; Preemergence, Rate 250 g/ha, scale of 0 to 10 where 0 is no effect and 10 is complete control) was 6 and the “B. signalgrass plant response rating” value (surinam grass; Preemergence, Rate 500 g/ha, scale of 0 to 10 where 0 is no effect and 10 is complete control) was 8. For the same compound, the “B. signalgrass plant response rating” value (surinam grass; Rate 62 g/ha, Postemergence, scale of 0 to 10 where 0 is no effect and 10 is complete control) was 2, the “Plant response rating, B. signalgrass” value (surinam grass; Rate 250 g/ha, Postemergence, scale of 0 to 10 where 0 is no effect and 10 is complete control) was 4 and the “Plant response rating, B. signalgrass” value (surinam grass; [6]) was 7. The “Plant response rating, Corn” value (corn; [4]) was 0, the “Plant response rating, Corn” value (corn; [5]) was 0 and the “Corn plant response rating (0 to 10 scale)” value (corn; Preemergence, Rate 125 g/ha) was 0. For the same compound, the “Corn plant response rating” value (corn; Preemergence, Rate 250 g/ha) was 0, the “Corn plant response rating” value (corn; Preemergence, Rate 500 g/ha) was 4 and the “Corn plant response rating” value (corn; Rate 62 g/ha, Postemergence) was 0. The “Plant response rating, Corn” value (corn; [6]) was 2, the “Plant response rating, Crabgrass” value (crabgrass; [4]) was 1 and the “Plant response rating, Crabgrass” value (crabgrass; [5]) was 6. For the same compound, the “Crabgrass plant response rating (0 to 10 scale)” value (crabgrass; Preemergence, Rate 125 g/ha) was 9, the “Crabgrass plant response rating” value (crabgrass; Preemergence, Rate 500 g/ha) was 10 and the “Crabgrass plant response rating” value (crabgrass; Rate 62 g/ha, Postemergence) was 1. For the same compound, the “Plant response rating, Crabgrass” value (crabgrass; [6]) was 6, the “Plant response rating, C. ragweed” value (common ragweed; [7]) was 0 and the “Plant response rating, C. ragweed” value (common ragweed; [8]) was 0. The “Plant response rating, C. ragweed” value (common ragweed; [9]) was 0, the “Plant response rating, C. ragweed” value (common ragweed; [10]) was 60 and the “Plant response rating, C. ragweed” value (common ragweed; Rate 250 g/ha) was 90. The “Plant response rating, Dallisgrass” value (dallisgrass; [7]) was 0, the “Plant response rating, Dallisgrass” value (dallisgrass; [8]) was 30 and the “Plant response rating, Dallisgrass” value (dallisgrass; [9]) was 90. The “Plant response rating, Dallisgrass” value (dallisgrass; [10]) was 90, the “Plant response rating, Dallisgrass” value (dallisgrass; Rate 250 g/ha) was 100 and the “Plant response rating, Goosegrass” value (goosegrass; [7]) was 40. The “Plant response rating, Goosegrass” value (goosegrass; [8]) was 80, the “Plant response rating, Goosegrass” value (goosegrass; [9]) was 90 and the “Plant response rating, Goosegrass” value (goosegrass; [10]) was 90. The “Plant response rating, Goosegrass” value (goosegrass; Rate 250 g/ha) was 100, the “Plant response rating, Johnsongrass” value (Johnson grass; [7]) was 0 and the “Plant response rating, Johnsongrass” value (Johnson grass; [8]) was 0. For the same compound, the “Plant response rating, Johnsongrass” value (Johnson grass; [9]) was 20, the “Plant response rating, Johnsongrass” value (Johnson grass; [10]) was 20 and the “Plant response rating, Johnsongrass” value (Johnson grass; Rate 250 g/ha) was 100. For the same compound, the “Plant response rating, Large crabgrass” value (large crabgrass; [7]) was 0, the “Plant response rating, Large crabgrass” value (large crabgrass; [8]) was 30 and the “Plant response rating, Large crabgrass” value (large crabgrass; [9]) was 90. The “Plant response rating, Large crabgrass” value (large crabgrass; [10]) was 100, the “Plant response rating, Large crabgrass” value (large crabgrass; Rate 250 g/ha) was 100 and the “Plant response rating, Spanishneedles” value (Spanishneedles; [7]) was 0. The “Plant response rating, Spanishneedles” value (Spanishneedles; [8]) was 0, the “Spanishneedles plant response rating” value (Spanishneedles; [9]) was 0 and the “Spanishneedles plant response rating” value (Spanishneedles; [10]) was 0. For the same compound, the “Plant response rating, Spanishneedles” value (Spanishneedles; Rate 250 g/ha) was 20, the “Plant response rating, Green foxtail” value (Green foxtail [1]; Rate 64 g/ha) was 100 and the “Plant response rating, Green foxtail” value (Green foxtail [1]; Rate 125 g/ha) was 100. For the same compound, the “Green foxtail plant response rating” value (Green foxtail [2]; Rate 64 g/ha) was 100, the “Green foxtail plant response rating” value (Green foxtail [2]; Rate 125 g/ha) was 100 and the “Plant response rating, Green foxtail” value (Green foxtail [3]; Rate 16 g/ha) was 0. For the same compound, the “Plant response rating, Green foxtail” value (Green foxtail [3]; Rate 32 g/ha) was 100.
